Patent US20140039044A1, “Hydroxylated Polymethoxyflavone Compositions” (WLLGEN, INC., priority 2006, published 2014)

What was measured:
Type in all cases: cell-based, human
AGS cells [1] = assay: Cell survival assay (antiproliferative IC50); conditions: Homo sapiens; AGS cells; read-out: Antiproliferative IC50
COLO205 cells [2] = assay: Cell survival assay (antiproliferative IC50); conditions: Homo sapiens, COLO 205; COLO205 cells; read-out: Antiproliferative IC50
HL-60 cells = assay: Cell survival assay (antiproliferative IC50); conditions: Homo sapiens; HL-60 cells; read-out: Antiproliferative IC50
HT-29 cells = assay: Cell survival assay (antiproliferative IC50); conditions: Homo sapiens
Procedure, shortened: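 HT-29 cells in RPMI 1640 with 10% heat-inactivated FBS, 2×10^5 per well, treated next day with compounds from DMSO stocks (0.05% DMSO final) for 24 h, or 1, 3 or 6 days. Growth read by hemocytometer count and CyQUANT total nucleic acid content; IC50 antiproliferative.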

AGS cells [3] = assay: Cell cycle distribution by flow cytometry; conditions: for Cell Cycle Distribution G0/G1 / Cell Cycle Distribution G2/M / Cell Cycle Distribution S: 24 h, Table 11
Procedure, shortened: (§1)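 Human cancer cells (2×10^5 per dish) exposed 24 h to compound at 5–100 μM, or DMSO. Cells ethanol-fixed at −20° C overnight, RNase/Triton-treated at 37° C for 30 min, then stained with propidium iodide. DNA content read by FACScan flow cytometry to give phase distribution.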

COLO205 cells [4] = assay: Cell cycle distribution by flow cytometry; conditions: COLO205 cells; for Cell Cycle Distribution G0/G1 / Cell Cycle Distribution G2/M / Cell Cycle Distribution S: 24 h, Table 12
Procedure, shortened: as §1

| SMILES | IC50 (AGS cells [1]) | IC50 (COLO205 cells [2]) | IC50 (HL-60 cells) | IC50 (HT-29 cells) | Cell Cycle Distribution G0/G1 (AGS cells [3]; 5 μM) | Cell Cycle Distribution G2/M (AGS cells [3]; 5 μM) | Cell Cycle Distribution S (AGS cells [3]; 5 μM) | Cell Cycle Distribution G0/G1 (AGS cells [3]; 10 μM) | Cell Cycle Distribution G2/M (AGS cells [3]; 10 μM) | Cell Cycle Distribution S (AGS cells [3]; 10 μM) | Cell Cycle Distribution G0/G1 (AGS cells [3]; 25 μM) | Cell Cycle Distribution G2/M (AGS cells [3]; 25 μM) | Cell Cycle Distribution S (AGS cells [3]; 25 μM) | Cell Cycle Distribution G0/G1 (AGS cells [3]; 50 μM) | Cell Cycle Distribution G2/M (AGS cells [3]; 50 μM) | Cell Cycle Distribution S (AGS cells [3]; 50 μM) | Cell Cycle Distribution G0/G1 (AGS cells [3]; 100 μM) | Cell Cycle Distribution G2/M (AGS cells [3]; 100 μM) | Cell Cycle Distribution S (AGS cells [3]; 100 μM) | Cell Cycle Distribution G0/G1 (COLO205 cells [4]; 5 μM) | also measured |
| --- | --- | --- | --- | --- | --- | --- | --- | --- | --- | --- | --- | --- | --- | --- | --- | --- | --- | --- | --- | --- | --- |
| COc1cc(-c2cc(=O)c3c(OC)c(OC)c(OC)c(OC)c3o2)ccc1O [Compound G, 4′-hydroxy-5,6,7,8,3′-pentamethoxyflavone] | 70.5 ± 9.97 µM | 83.7 ± 4.96 µM | 47.4 ± 3.64 µM | 45.8 µM | 55.39 ± 0.47 | 16.76 ± 0.86 | 27.86 ± 1.32 | 60.42 ± 1.28 | 16.80 ± 1.75 | 22.79 ± 0.47 | 68.29 ± 0.95 | 14.39 ± 0.16 | 17.33 ± 0.80 | 62.27 ± 0.06 | 22.98 ± 1.90 | 14.78 ± 1.83 | 50.27 ± 0.52 | 26.85 ± 1.85 | 22.88 ± 2.38 | 67.93 ± 0.74 | Cell Cycle Distribution G2/M (COLO205 cells [4]; 5 μM): 4.71 ± 0.18; Cell Cycle Distribution S (COLO205 cells [4]; 5 μM): 27.36 ± 0.56; Cell Cycle Distribution G0/G1 (COLO205 cells [4]; 10 μM): 72.87 ± 2.37; Cell Cycle Distribution G2/M (COLO205 cells [4]; 10 μM): 4.51 ± 0.08; Cell Cycle Distribution S (COLO205 cells [4]; 10 μM): 22.64 ± 2.28; Cell Cycle Distribution G0/G1 (COLO205 cells [4]; 25 μM): 73.74 ± 0.51; Cell Cycle Distribution G2/M (COLO205 cells [4]; 25 μM): 6.47 ± 0.93; Cell Cycle Distribution S (COLO205 cells [4]; 25 μM): 19.80 ± 0.42; Cell Cycle Distribution G0/G1 (COLO205 cells [4]; 50 μM): 73.90 ± 0.41; Cell Cycle Distribution G2/M (COLO205 cells [4]; 50 μM): 8.17 ± 0.23; Cell Cycle Distribution S (COLO205 cells [4]; 50 μM): 17.94 ± 0.17; Cell Cycle Distribution G0/G1 (COLO205 cells [4]; 100 μM): 73.05 ± 0.30; Cell Cycle Distribution G2/M (COLO205 cells [4]; 100 μM): 7.61 ± 0.46; Cell Cycle Distribution S (COLO205 cells [4]; 100 μM): 19.35 ± 0.76 |
| COc1ccc(-c2cc(=O)c3c(O)c(OC)c(OC)c(OC)c3o2)cc1OC [J, 5-hydroxy-6,7,8,3′,4′-pentamethoxyflavone] | > 100 µM | > 100 µM | > 100 µM | > 100 µM | 58.65 ± 1.77 | 13.51 ± 1.20 | 27.84 ± 0.56 | 57.07 ± 1.02 | 13.84 ± 0.52 | 29.09 ± 1.54 | 58.84 ± 4.84 | 14.00 ± 4.20 | 27.17 ± 0.64 | 52.82 ± 3.22 | 15.74 ± 0.11 | 31.45 ± 3.31 | 58.11 ± 1.11 | 12.71 ± 0.25 | 29.24 ± 1.28 | 56.75 ± 1.52 | Cell Cycle Distribution G2/M (COLO205 cells [4]; 5 μM): 7.41 ± 0.30; Cell Cycle Distribution S (COLO205 cells [4]; 5 μM): 35.85 ± 1.22; Cell Cycle Distribution G0/G1 (COLO205 cells [4]; 10 μM): 59.63 ± 0.88; Cell Cycle Distribution G2/M (COLO205 cells [4]; 10 μM): 7.07 ± 0.86; Cell Cycle Distribution S (COLO205 cells [4]; 10 μM): 31.99 ± 1.85; Cell Cycle Distribution G0/G1 (COLO205 cells [4]; 25 μM): 63.97 ± 0.56; Cell Cycle Distribution G2/M (COLO205 cells [4]; 25 μM): 6.38 ± 1.05; Cell Cycle Distribution S (COLO205 cells [4]; 25 μM): 29.65 ± 1.61; Cell Cycle Distribution G0/G1 (COLO205 cells [4]; 50 μM): 64.90 ± 1.44; Cell Cycle Distribution G2/M (COLO205 cells [4]; 50 μM): 6.41 ± 0.13; Cell Cycle Distribution S (COLO205 cells [4]; 50 μM): 28.69 ± 1.57; Cell Cycle Distribution G0/G1 (COLO205 cells [4]; 100 μM): 62.39 ± 2.98; Cell Cycle Distribution G2/M (COLO205 cells [4]; 100 μM): 7.05 ± 0.13; Cell Cycle Distribution S (COLO205 cells [4]; 100 μM): 30.57 ± 2.84 |
| COc1ccc(-c2cc(=O)c3c(O)c(OC)c(OC)c(OC)c3o2)cc1O [Compound K, 5,3′-dihydroxy-6,7,8,4′-tetramethoxyflavone] | 9.61 µM | 11.2 µM | 10 µM | 40 µM | 51.75 ± 0.73 | 13.65 ± 0.18 | 34.61 ± 0.91 | 22.20 ± 1.56 | 48.12 ± 1.35 | 26.69 ± 0.91 | 42.63 ± 0.05 | 34.57 ± 0.62 | 22.81 ± 0.51 | 43.90 ± 2.37 | 35.67 ± 2.29 | 20.44 ± 0.08 | 50.77 ± 1.01 | 31.20 ± 0.43 | 18.04 ± 1.45 | 57.68 ± 0.42 | G2/M cell cycle arrest, in words (AGS cells [3]): strongly potentiated the G2/M cell cycle arrest; G2/M cell cycle arrest, in words (COLO205 cells [4]): strongly potentiated the G2/M cell cycle arrest; Cell Cycle Distribution G2/M (COLO205 cells [4]; 5 μM): 7.08 ± 0.20; Cell Cycle Distribution S (COLO205 cells [4]; 5 μM): 34.52 ± 0.21; Cell Cycle Distribution G0/G1 (COLO205 cells [4]; 10 μM): 65.81 ± 0.83; Cell Cycle Distribution G2/M (COLO205 cells [4]; 10 μM): 1.75 ± 0.47; Cell Cycle Distribution S (COLO205 cells [4]; 10 μM): 32.44 ± 2.28; Cell Cycle Distribution G0/G1 (COLO205 cells [4]; 25 μM): 66.63 ± 1.51; Cell Cycle Distribution G2/M (COLO205 cells [4]; 25 μM): 13.31 ± 1.91; Cell Cycle Distribution S (COLO205 cells [4]; 25 μM): 20.06 ± 0.40; Cell Cycle Distribution G0/G1 (COLO205 cells [4]; 50 μM): 42.30 ± 1.12; Cell Cycle Distribution G2/M (COLO205 cells [4]; 50 μM): 23.42 ± 0.83; Cell Cycle Distribution S (COLO205 cells [4]; 50 μM): 34.29 ± 0.29; Cell Cycle Distribution G0/G1 (COLO205 cells [4]; 100 μM): 43.58 ± 2.29; Cell Cycle Distribution G2/M (COLO205 cells [4]; 100 μM): 22.85 ± 2.96; Cell Cycle Distribution S (COLO205 cells [4]; 100 μM): 33.57 ± 0.67 |
